This is an account of results in US5731334A, “Method for treating cancer using taxoid onium salt prodrugs” (priority 1995, dated 1998).

pIC50: −log10 of the molar value.

Data set [1] relates to A549 lung adenocarcinoma tumor xenograft. The data set is described as follows: Human lung adenocarcinoma A549 xenograft in nude mice. The settings on record: 1.0 mM, 400 μL i.p. days 1, 3, 5, 7, 9, 11. A general note: In xenograft studies the graft and the host belong to different species.
Experimental: (§3) Athymic nude mice were purchased from Harlan-Sprague-Dawley. The animals were housed in microisolated cases under positive air pressure and all manipulations and drug treatments were performed in a laminar flow cabinet. Tumor cells were grown under the above tissue culture conditions. Cell suspensions in RPMI medium were injected S./C. Treatment was started one day after inoculation by i.p. injection of 400 μl drug solutions. Tumors were measured 3 times weekly in two dimensions, using calipers and tumor volume as calculated using the formula (V=w^2 ×L×(3.142).
The tumor model was generated from A549 cell line, an ATTC that was maintained under standard cell proliferation conditions (37° C., 5% carbon dioxide in sterile air). Each cohort was comprised of six randomly chosen female athymic nude mice, for a total population size of twenty four mice. Hemocytometer counted cells, suspended in Hanks mediun (Gibco, Grand Island N.Y.) were implated S.C. (10^6 cells in 0.4 mL per mouse). Solid tumor growth was measured on each third day. Equimolar amounts of the test compounds (1.0 mM, 400 μL) were injected i.p. on days 1, 3, 5, 7, 9, and 11 using the following media:
(Δ): Control, saline in 5× distilled water (5 DW)
(.smallcircle.): Taxol (18.0 mg/kg of animal weight or approximately 1,260 mg/m^2) suspended in Cremaphor/D5W […]
The subject of data set [2] is CHO Chinese hamster ovary cells. As to the kind of experiment: XTT dye binding cytotoxicity assay, CHO. The data set is classed as cell-based. The following applies: Cricetulus griseus; CHO, Chinese hamster ovary (untransformed); 72 h; read-out: IC50. As to the method:
(§1) All cell lines described herein were obtained from the ATCC and maintained in media formulations as recommended by the supplier. The cell lines were tested for mycoplasma contamination prior to incubation at 37° C. in 5% carbon dioxide. Normal human dermal fibroblasts, peripheral blood lymphoblasts and mammary epithelial cells were obtained from Clonogenic Cor., San Diego, Calif. and were maintained under the above incubation conditions in special media provided by the supplier.
(§2) Antiproliferative activities of the onium salts were determined using the XTT dye binding assay. Cells were harvested with trypsin/EDTA (Irvine Scientific), washed, resuspended in the appropriate medium, and counted in a hemocytometer using Trypan Blue to determine viability. Then 10^4 cells/well were added to 96 well microtiter plates and incubated for 24 hours before addition of drug at concentrations in the range of 10^-4 to 10^-13 molar by direct addition from DMSO solutions. After 72 hours, XTT binding dye was added and incubation was continued for 4 hours. The inhibition of cell proliferation was quantified using a Molecular Devices Microplate Reader. The absorbance of XTT was measured at […]. The concentration of drug which inhibited growth of cells by 50% was calculated from duplicated determinations.

In data set [3] the test system is human tumor xenografts. As to the kind of experiment: In vivo antitumor effect (human tumor xenografts in nude mice).
For data set [4], the system named is HT-29 colon carcinoma cells. The data set is described as follows: XTT dye binding cytotoxicity assay, HT-29. The settings on record: Homo sapiens; HT-29, colon carcinoma; 72 h; read-out: IC50. In kind it is cell-based. As to the method:
as §1, §2
On the technique in general: Formazan colour is commonly taken as a measure of viable cells.

Data set [5] has as its system PC-3 prostate carcinoma tumor xenograft. The settings on record: in vivo.
Experimental: as §3
The tumor model was generated from an ATTC PC-3 prostate carcinoma cell line that was maintained under standard cell proliferation conditions, viz. 37° C., 5% carbon dioxide in sterile air. Each cohort was comprised of eight randomly chosen female athymic nude mice, for a total population size of twenty four. Hemocytometer counted cells, suspended in Hanks mediun (Gibco, Grand Island N.Y.) were implanted S.C. (10^6 cells in 0.4 mL per mouse). Solid tumor growth was measured on each third day. Equimolar amounts of the test compounds (1.0 mM, 400 μL) were injected i.p. on days 1, 3, 5, 7, 9, and 11 using the following media:
(.smallcircle.): Control, 5% dextrose in 5× distilled water (5 DW)
(Δ): Taxol (18.0 mg/kg of animal weight or approximately 1.260 mg/m^2) suspended in Cremaphor/D5W
Inferences about efficacy were drawn by ANOVA followed by protected t-test. […] Data shown as mean value with standard error.
The subject of data set [6] is HL-60 promyelocytic leukemia cells. As to the kind of experiment: XTT dye binding cytotoxicity assay, HL-60. The data set is classed as cell-based. The settings on record: Homo sapiens; HL-60, promyelocytic leukemia; 72 h; read-out: IC50. The procedure:
as §1, §2

The subject of data set [7] is RPMI-7666 blood lymphoblasts. The data set is described as follows: XTT dye binding cytotoxicity assay, RPMI-7666. The settings on record: Homo sapiens; RPMI-7666, blood lymphoblasts (untransformed); 72 h; read-out: IC50. In kind it is cell-based. The procedure:
as §1, §2

The subject of data set [8] is HMEC mammary epithelial cells. As to the kind of experiment: XTT dye binding cytotoxicity assay, HMEC. In kind it is cell-based. The following applies: Homo sapiens, mammary epithelial cells (untransformed), 72 h, read-out: IC50. As to the method: as §1, §2
Data set [9] has as its system SIHA squamous carcinoma cells. As to the kind of experiment: XTT dye binding cytotoxicity assay, SIHA. The data set is classed as cell-based. The following applies: Homo sapiens; SIHA, squamous carcinoma; 72 h; read-out: IC50. As to the method:
as §1, §2

In data set [10] the test system is L-1210 leukemia cells. As to the kind of experiment: XTT dye binding cytotoxicity assay, L-1210. In kind it is cell-based, mouse. The following applies: L1210; L-1210, mouse leukemia; 72 h; read-out: IC50. The procedure: as §1, §2
Data set [11] is described as follows: Plasma stability and prodrug reversion (ethyl acetate extraction, HPLC). The following applies: human, plasma.
Data set [12] has as its system Ovcar 3 ovarian carcinoma tumor xenograft.
Experimental: as §3
The tumor model was generated from an ATTC Ovcar 3 carcinoma cell line that was maintained under standard cell proliferation conditions, viz. 37° C., 5% carbon dioxide in sterile air. Each cohort was comprised of eight randomly chosen female athymic nude mice, for a total population size of twenty four. Hemocytometer counted cells, suspended in Hanks medium (Gibco, Grand Island N.Y.) were implanted S.C. (10^6 cells in 0.4 mL per mouse). Solid tumor growth was measured on each third day. Equimolar amounts of the test compounds (1.0 mM, 400 μL) were injected i.p. on days 1, 3, 5, 7, 9, and 11 using the following media:
(.quadrature.): Control, saline in 5× distilled water (D5W) […]
Data set [13] deals with A-549 lung carcinoma cells. The data set is described as follows: XTT dye binding cytotoxicity assay, A-549. The data set is classed as cell-based. The settings on record: Homo sapiens, A549; A-549, lung carcinoma; 72 h; read-out: IC50. The procedure:
as §1, §2

With `CC(=O)O[C@H]1C(=O)[C@@]2(C)[C@H]([C@H](OC(=O)c3ccccc3)[C@]3(O)C[C@H](OC(=O)[C@H](Oc4cccc[n+]4C)[C@@H](NC(=O)c4ccccc4)c4ccccc4)C(C)=C1C3(C)C)[C@]1(OC(C)=O)CO[C@@H]1C[C@@H]2O` [Compound 2], in [1], the “tumor growth inhibition, A549” value is reported as “inhibited tumor growth nearly completely”. The pIC50 was 6.67 in data set [2]; 8.71 in data set [4]; 9.60 in data set [6]; 6.88 in data set [7]; 6.90 in data set [8]; 8.42 in data set [9]. The pIC50 in data set [10] was 7.89; in data set [13] it was 6.82. In [3], the “in vivo antitumor efficacy in words” value is reported as “produced tumor regression with a high percentage of animals being free of measurable tumor masses at the end of the experiments”. For the same compound, the “mice surviving treatment, PC-3” value in [5] is listed as “all of the mice given either the 2'- or 7-isomers survived”. In [11], the half-life came out at 2.4 min. The recovery in [11] was 21%. In addition, the “tumor growth inhibition, Ovcar-3” value in data set [12] (1.0 mM, 400 μL i.p. days 1, 3, 5, 7, 9, 11) is given as “complete inhibition of tumor growth”. In addition, the “survival of animals, Ovcar-3” value in [12] (in vivo) is listed as 100%.

What is called pIC50 is the negative decadic logarithm of the IC50, by convention in mol/L. For orientation: half-life means the time needed for the level to fall by half in the phase considered.
